According to publication PMC5826112, “Intrapulmonary Pharmacokinetics of Relebactam, a Novel β-Lactamase Inhibitor, Dosed in Combination with Imipenem-Cilastatin in Healthy Subjects” (Antimicrobial Agents and Chemotherapy, 2018):
Like-named read-outs stand apart in the source and are kept apart here.

Test: Intrapulmonary (ELF, AC) and plasma pharmacokinetics after multiple-dose IV relebactam with imipenem-cilastatin, bronchoscopy/BAL, noncompartmental analysis
Assay type: in vivo, human (healthy subjects)
Details: for t1/2 (terminal half-life) / half-life / AUC(0-inf) / Cmax / Tmax / AUC(0-t): mean profile; for half-life: read-out: t1/2 (terminal half-life) (converted); for Kp at 1 h: 1.0 h after last dose; for Kp at 3 h: 3.0 h after last dose; for AUC(0-inf): noncompartmental analysis; for AUC(0-t): read-out: AUC0–3
Description: Dosing and administration of imipenem-cilastatin were carried out in a manner consistent with the recommended labeled posology. BAL fluid specimens were obtained during bronchoscopy for the determination of the relebactam and imipenem concentrations in the ELF and AC. Four aliquots of normal saline (50 ml each) were sequentially instilled and aspirated after each instillation. The first aspirate was discarded, and the remaining aspirates were pooled and used to obtain urea and drug level measurements. Aliquots were obtained for cell count/differential, and the remainder of the pooled aspirates was centrifuged. The liquid aspirate and cell pellet were separated and stored at −70°C. The supernatant was sent for urea and drug level measurements. Blood samples were collected prior to the first and fifth doses of study drug for the determination of relebactam and imipenem plasma concentrations. Blood samples were also collected during the bronchoscopy/BAL procedure for the determination of relebactam, imipenem, and urea concentrations. Relebactam and imipenem levels in plasma, pulmonary ELF, and AC were measured simultaneously via acetonitrile protein precipitation and hydrophilic interaction liquid chromatography (HILIC) with detection via liquid chromatography-tandem mass spectrometry (LC-MS/MS). The system consisted of a Waters Acquity ultraperformance liquid chromatograph (Waters Corp., Milford, MA) and an API 4000 or 5000 triple-quadrupole tandem mass spectrometer (Sciex, Framingham, MA) equipped with a turbo-ion spray interface and operated in the positive ionization mode. The multiple reaction monitoring (MRM) transitions monitored were m/z 349 → 269 for relebactam, m/z 300 → 98 for imipenem, and m/z 354 → 274 and m/z 307 → 98 for their respective internal standards. […] The ELF volumes recovered by BAL were determined by using urea as an endogenous marker to provide a dilution ratio by measurement of urea concentrations in the BAL fluid and serum ([33]). […] The mean value for each time point was used to conduct the noncompartmental analysis using Phoenix (version 6.3) software (Pharsight Corporation, Mountain View, CA) and to calculate the values of the PK parameters on the basis of the mean profile in each matrix.

[1] = both sexes, human, AC/plasma, intravenous, same regimen, n=4, read-out: AC/plasma concn GMR (90% CI)
[2] = both sexes, human, ELF/plasma, intravenous, same regimen, n=4, read-out: ELF/plasma concn GMR (90% CI)
[3] = both sexes, human, intravenous, AC, same regimen
[4] = both sexes, human, intravenous, ELF, same regimen
[5] = both sexes, human, intravenous, plasma, same regimen

Compound: O=C(NC1CCNCC1)[C@@H]1CC[C@@H]2CN1C(=O)N2OS(=O)(=O)O [relebactam]
- t1/2 (terminal half-life) (AC, same regimen): 2.25 h
- t1/2 (terminal half-life) (ELF, same regimen): 1.29 h
- GMR for the relebactam concentration versus the imipenem concentration in ELF (at the Tmax of imipenem (0.5 h), 90% CI 45%, 49%): 47%
- half-life (both sexes, human, AC, intravenous, AC, same regimen): 2.3 h
- Kp (both sexes, human, AC/plasma, intravenous, mean profiles, after adjustment for protein binding, read-out: relative exposure (AUC0–∞) in AC versus plasma): 0.36
- Kp (both sexes, human, AC/plasma, intravenous, same regimen, 0.5 to 3 h after last dose, read-out: GMRs for AC/plasma concentrations, range across time points): 0.14 to 0.51
- Kp at 0.5 h (both sexes, human, AC/plasma, intravenous, same regimen, 0.5 h after last dose, n=4, read-out: AC/plasma concn GMR (90% CI)): 0.14
- Kp at 1 h [1]: 0.25
- Kp at 1.5 h (both sexes, human, AC/plasma, intravenous, same regimen, 1.5 h after last dose, n=4, read-out: AC/plasma concn GMR (90% CI)): 0.38
- Kp at 3 h [1]: 0.51
- half-life (both sexes, human, ELF, intravenous, ELF, same regimen): 1.3 h
- concentration at 0.5 h (both sexes, human, ELF, intravenous, same regimen, 0.5 h after last dose, n=4, read-out: concn in ELF, GM): 14.9 µM
- concentration at 1 h (both sexes, human, ELF, intravenous, same regimen, 1 h after last dose, n=4, read-out: concn in ELF, GM): 10.9 µM
- concentration at 1.5 h (both sexes, human, ELF, intravenous, same regimen, 1.5 h after last dose, n=4, read-out: concn in ELF, GM): 9.49 µM
- concentration at 3 h (both sexes, human, ELF, intravenous, same regimen, 3 h after last dose, n=4, read-out: concn in ELF, GM): 4.27 µM
- Kp (both sexes, human, ELF/plasma, intravenous, calculated as 100 · ELF AUC0–∞/plasma AUC0–∞/0.8, adjusted for protein binding (80% unbound in plasma, 100% free in ELF), read-out: Adjusted ELF/plasma AUC0–∞ ratio): 0.54
- Kp (both sexes, human, ELF/plasma, intravenous, calculated as 100 · ELF AUC0–∞/plasma AUC0–∞, mean profiles, read-out: ELF/plasma AUC0–∞ ratio): 0.43
- Kp (both sexes, human, ELF/plasma, intravenous, same regimen, 0.5 to 3 h after last dose, read-out: GMRs for ELF/plasma concentrations, range across time points): 0.32 to 0.51
- Kp at 1 h [2]: 0.35
- Kp at 1.5 h (both sexes, human, ELF/plasma, intravenous, same regimen, 1.5 h after last dose, n=4, read-out: ELF/plasma concn GMR (90% CI)): 0.51
- Kp at 3 h [2]: 0.46
- Kp at 0.5 h (both sexes, human, ELF/plasma, iv, healthy subjects, relebactam 250 mg with imipenem-cilastatin 500 mg IV every 6 h, 5 doses, 0.5 h after last dose, n=4, read-out: ELF/plasma concn GMR (90% CI)): 0.32
- AUC(0-inf) [3]: 23.6 µM·h
- Cmax [3]: 7.81 µM
- Tmax [3]: 1 h
- AUC(0-t) [3]: 12.8 µM·h
- AUC(0-inf) [4]: 34.9 µM·h
- Cmax [4]: 15.3 µM
- Tmax [4]: 0.5 h
- AUC(0-t) [4]: 26.7 µM·h
- AUC(0-inf) [5]: 81.2 µM·h
- Cmax [5]: 47.9 µM
- Tmax [5]: 0.5 h
- AUC(0-t) [5]: 64.7 µM·h
- half-life (both sexes, human, plasma, intravenous, plasma, same regimen): 1.2 h
- Adjusted ELF/plasma AUC0–∞ ratio (calculated as 100 · ELF AUC0–∞/plasma AUC0–∞/0.8, adjusted for protein binding (80% unbound in plasma, 100% free in ELF)): 53.7%
- t1/2 (terminal half-life) (plasma, same regimen): 1.24 h
- Relebactam/imipenem concn ratio in ELF, GMR (same regimen, 0.5 h after last dose): 0.47
- Relebactam/imipenem concn ratio in ELF, GMR (same regimen, 1 h after last dose): 0.54
- Relebactam/imipenem concn ratio in ELF, GMR (same regimen, 1.5 h after last dose): 0.58
- Relebactam/imipenem concn ratio in ELF, GMR (same regimen, 3 h after last dose): 0.71
